The target of this experiment is T1, human monoamine oxidase A (hMAO-A) (Homo sapiens, UniProt P21397).
T1 construct: gene MAOA
T1 sequence (P21397 1-527): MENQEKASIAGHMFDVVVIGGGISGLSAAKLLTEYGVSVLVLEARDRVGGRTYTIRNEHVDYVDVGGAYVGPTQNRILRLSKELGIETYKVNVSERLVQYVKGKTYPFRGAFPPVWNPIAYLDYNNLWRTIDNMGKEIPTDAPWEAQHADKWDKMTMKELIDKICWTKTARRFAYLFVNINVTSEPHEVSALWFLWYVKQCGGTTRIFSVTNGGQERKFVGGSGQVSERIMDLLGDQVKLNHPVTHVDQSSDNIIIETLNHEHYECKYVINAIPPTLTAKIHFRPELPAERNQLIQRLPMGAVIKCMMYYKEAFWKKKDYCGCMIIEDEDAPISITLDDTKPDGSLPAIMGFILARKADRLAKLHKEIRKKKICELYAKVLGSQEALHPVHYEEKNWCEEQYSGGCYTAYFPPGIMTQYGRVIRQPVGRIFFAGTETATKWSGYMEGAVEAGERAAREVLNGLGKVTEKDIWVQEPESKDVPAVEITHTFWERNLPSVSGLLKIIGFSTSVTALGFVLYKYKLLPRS
Kind of experiment: MAO-Glo luminescence enzyme assay, single concentration of […]. The experiment is classed as biochemical.

Each structure is given as a SMILES string.

As for `CC(=O)CC/C=C1/CC[C@H](C(C)(C)O)OC1=O` [compound 1, 6R-(2-hydroxypropan-2-yl)-3Z-(4-oxopentylidene)tetrahydro-2H-pyran-2-one], the inhibition (commonly how much of the control response was suppressed) at 200 µM came out at 42.2 ± 2.68%.

Values taken from paper PMC9370394, “New Monocyclic Terpenoid Lactones from a Brown Algae Sargassum macrocarpum as Monoamine Oxidase Inhibitors” (Plants, 2022).
